Measured values reported in US20260069571A1, “DDR1 AND DDR2 INHIBITORS FOR THE TREATEMENT OF CANCER AND FIBROTIC DISEASES” (REDX PHARMA PLC, priority 2021, published 2026).

Columns and labels:
Recombinant human DDR1 = Recombinant human DDR1 (Homo sapiens (Human), UniProt Q08345); test: LanthaScreen Eu Kinase Binding Assay, DDR1; conditions: DDR1 2.5 nM (aa440-876, GST tag), Kinase Tracer 178 5 nM; for IC50: read-out: DDR1 pIC50 (converted)
Protocol: (§1) DDR1 and DDR2 Biochemical Assay Method
(§2) The capacity of compounds to bind to DDR1 and DDR2 was quantified using a LanthaScreen Eu Kinase Binding Assay. Recombinant human DDR1 (2.5 nM; aa440-876 containing a GST tag) and DDR2 (1.75 nM; aa427-855 containing a GST tag) were diluted in assay buffer (50 mM HEPES pH7.3, 10 mM MgCl2, 1 mM EGTA and 0.01% Tween) with various concentrations of compound in a 384-well plate and a volume of 5 uL. After a 30-minute incubation at room temperature, 2.5 uL of Eu-anti GST antibody (diluted to 1 nM in assay buffer) plus Kinase Tracer 178 (diluted in assay buffer to 5 nM for DDR1 and 10 nM for DDR2) were added to the plate. Following 60-minute incubation at room temperature, time-resolved fluorescence was measured on a BMG Labtech PHERAstar plate reader. DMSO (1%) and reference compound (1 μM) were used to generate the Max and Min assay signals, respectively. Data was analysed using a four-parameter logistic model to calculate IC50 values, with at least two independent replicates were performed for each compound.

Recombinant human DDR2 = Recombinant human DDR2 (Homo sapiens (Human), UniProt Q16832); test: LanthaScreen Eu Kinase Binding Assay, DDR2; conditions: DDR2 1.75 nM (aa427-855, GST tag), Kinase Tracer 178 10 nM; for IC50: read-out: DDR2 pIC50 (converted)
Recombinant human DDR2, sequence (Q16832 427-855): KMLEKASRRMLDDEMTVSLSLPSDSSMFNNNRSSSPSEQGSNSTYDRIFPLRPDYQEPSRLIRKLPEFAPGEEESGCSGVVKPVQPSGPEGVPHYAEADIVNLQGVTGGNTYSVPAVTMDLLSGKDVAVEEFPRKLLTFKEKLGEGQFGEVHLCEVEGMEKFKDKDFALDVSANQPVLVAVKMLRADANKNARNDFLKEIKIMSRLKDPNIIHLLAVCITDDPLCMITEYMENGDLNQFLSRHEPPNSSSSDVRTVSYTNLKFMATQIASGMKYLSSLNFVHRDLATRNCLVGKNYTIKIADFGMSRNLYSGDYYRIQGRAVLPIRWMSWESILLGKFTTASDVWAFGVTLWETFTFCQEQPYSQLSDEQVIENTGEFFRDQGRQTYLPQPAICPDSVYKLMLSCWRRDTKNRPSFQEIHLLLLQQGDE
Protocol: as §1, §2

Recombinant human DDR1, sequence (Q08345 other isoform, or with tags, fused parts or gaps): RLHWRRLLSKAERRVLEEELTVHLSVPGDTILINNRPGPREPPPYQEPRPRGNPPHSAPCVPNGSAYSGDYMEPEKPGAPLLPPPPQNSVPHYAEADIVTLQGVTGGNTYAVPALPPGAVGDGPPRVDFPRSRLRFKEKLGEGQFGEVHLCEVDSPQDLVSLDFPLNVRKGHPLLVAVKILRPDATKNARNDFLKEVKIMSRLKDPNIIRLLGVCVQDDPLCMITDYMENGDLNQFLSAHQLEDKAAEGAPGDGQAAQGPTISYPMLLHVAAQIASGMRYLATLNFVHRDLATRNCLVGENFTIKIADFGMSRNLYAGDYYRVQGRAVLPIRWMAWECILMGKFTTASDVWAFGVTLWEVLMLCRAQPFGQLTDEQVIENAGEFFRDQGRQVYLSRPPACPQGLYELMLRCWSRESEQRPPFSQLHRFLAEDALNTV

| DDR1 pIC50 (Recombinant human DDR1) | IC50 (Recombinant human DDR2) [nM] | DDR2 pIC50 (Recombinant human DDR2) | IC50 (Recombinant human DDR1) [nM] | SMILES |
| --- | --- | --- | --- | --- |
| A (pIC50>8) | 10 to 100 | – | – | CN(C)Cc1ccc(NC(=O)CN2Cc3cccc(Nc4ccc5c(cnn5C)c4)c3C2=O)cc1C(F)(F)F [Example 13, N-[4-[(dimethylamino)methyl]-3-(trifluoromethyl)phenyl]-2-[7-[(1-methylindazol-5-yl)amino]-1-oxo-isoindolin-2-yl]acetamide] |
| A (pIC50>8) | – | A (pIC50>8) | – | Cc1n[nH]c2cc(Nc3cccc4c3C(=O)N(CC(=O)Nc3cnoc3)C4)ccc12 [Example 40, N-isoxazol-4-yl-2-[7-[(3-methyl-1H-indazol-6-yl)amino]-1-oxo-isoindolin-2-yl]acetamide] |
| – | – | D (pIC50≤6) | 100 to 1000 | Cn1ncc2cc(Nc3cccc4c3C(=O)N(CC(=O)NCC(F)(F)F)C4(C)C)ccc21 [Example 7, 2-[1,1-dimethyl-4-[(1-methylindazol-5-yl)amino]-3-oxo-isoindolin-2-yl]-N-(2,2,2-trifluoroethyl)acetamide] |
| A (pIC50>8) | 10 to 100 | – | – | Cn1ncc2cc(Nc3cccc4c3C(=O)N(CC(=O)NC3CC3(F)F)C4)ccc21 (stereo not drawn) [Example 24, N-(2,2-difluorocyclopropyl)-2-[7-[(1-methylindazol-5-yl)amino]-1-oxo-isoindolin-2-yl]acetamide] |
| A (pIC50>8) | 10 to 100 | – | – | Cn1ncc2cc(Nc3cccc4c3C(=O)N(CC(=O)Nc3cccc(C(C)(C)O)c3)C4)ccc21 [Example 10, N-[3-(1-hydroxy-1-methyl-ethyl)phenyl]-2-[7-[(1-methylindazol-5-yl)amino]-1-oxo-isoindolin-2-yl]acetamide] |
| A (pIC50>8) | 10 to 100 | – | – | Cc1n[nH]c2cc(Nc3cccc4c3C(=O)N(CC(=O)NCC(F)(F)F)C4)cnc12 [Example 30, 2-[7-[(3-methyl-1H-pyrazolo[4,3-b]pyridin-6-yl)amino]-1-oxo-isoindolin-2-yl]-N-(2,2,2-trifluoroethyl)acetamide] |
| – | 10 to 100 | – | 10 to 100 | CN(c1ccc2c(cnn2C)c1)c1cccc2c1C(=O)N(CC(=O)NCC(F)(F)F)C2 [Example 8, 2-[7-[methyl-(1-methylindazol-5-yl)amino]-1-oxo-isoindolin-2-yl]-N-(2,2,2-trifluoroethyl)acetamide] |
| – | – | D (pIC50≤6) | 100 to 1000 | Cc1n[nH]c2cc(Nc3cccc4c3C(=O)N(CC(=O)Nc3cnoc3)C4)cc(F)c12 [Example 65, 2-[7-[(4-fluoro-3-methyl-1H-indazol-6-yl)amino]-1-oxo-isoindolin-2-yl]-N-isoxazol-4-yl-acetamide] |
| – | 10 to 100 | – | 10 to 100 | CN(c1ccc2[nH]nc(C#N)c2c1)c1cccc2c1C(=O)N(CC(=O)N1CCC[C@H]1C(F)(F)F)C2 [Example 86, 5-[methyl-[3-oxo-2-[2-oxo-2-[(2S)-(trifluoromethyl)pyrrolidin-1-yl]ethyl]isoindolin-4-yl]amino]-1H-indazole-3-carbonitrile] |
| A (pIC50>8) | – | A (pIC50>8) | – | Cc1n[nH]c2cc(Nc3cccc4c3C(=O)N(CC(=O)N3CCC[C@H]3CF)C4)ccc12 [Example 33, 2-[2-[(2S)-(fluoromethyl)pyrrolidin-1-yl]-2-oxo-ethyl]-7-[(3-methyl-1H-indazol-6-yl)amino]isoindolin-1-one] |
| A (pIC50>8) | 10 to 100 | – | – | Cn1ncc2cc(Nc3cccc4c3C(=O)N(CC(=O)NCC(F)(F)F)C4)cc(F)c21 [Example 93, 2-[7-[(7-fluoro-1-methyl-indazol-5-yl)amino]-1-oxo-isoindolin-2-yl]-N-(2,2,2-trifluoroethyl)acetamide] |
| A (pIC50>8) | – | A (pIC50>8) | – | Cn1ncc2cc(Nc3cccc4c3C(=O)N(CC(=O)NCC(F)(F)F)C4)cc(Cl)c21 [Example 27, 2-[7-[(7-chloro-1-methyl-indazol-5-yl)amino]-1-oxo-isoindolin-2-yl]-N-(2,2,2-trifluoroethyl)acetamide] |
| – | 10 to 100 | – | 10 to 100 | CN(CC(F)(F)F)C(=O)CN1Cc2cccc(Nc3cnc4[nH]ncc4c3)c2C1=O [Example 76, N-methyl-2-[1-oxo-7-(1H-pyrazolo[3,4-b]pyridin-5-ylamino)isoindolin-2-yl]-N-(2,2,2-trifluoroethyl)acetamide] |
| – | 100 to 1000 | – | 10 to 100 | Cn1ncc2cc(Nc3nccc4c3C(=O)N(CC(=O)N3CCC[C@H]3C(F)(F)F)C4)ccc21 [Example 97, 4-[(1-methylindazol-5-yl)amino]-2-[2-oxo-2-[(2S)-(trifluoromethyl)pyrrolidin-1-yl]ethyl]-1H-pyrrolo[3,4-c]pyridin-3-one] |
| – | < 10 | – | < 10 | Cc1n[nH]c2cc(Nc3cccc4c3C(=O)N(CC(=O)N3CCC[C@H]3C(F)(F)F)C4)ccc12 [Example 29, 7-[(3-methyl-1H-indazol-6-yl)amino]-2-[2-oxo-2-[(2S)-(trifluoromethyl)77yrrolidine-1-yl]ethyl]isoindolin-1-one] |
| – | 100 to 1000 | – | 10 to 100 | O=C(CN1Cc2cccc(Nc3ccc4cn[nH]c4c3)c2C1=O)NCC(F)(F)F [Example 81, 2-[7-(1H-indazol-6-ylamino)-1-oxo-isoindolin-2-yl]-N-(2,2,2-trifluoroethyl)acetamide] |
| A (pIC50>8) | – | A (pIC50>8) | – | Cn1ncc2cc(Nc3cccc4c3C(=O)N(CC(=O)Nc3cnoc3)C4)ccc21 [Example 4, N-isoxazol-4-yl-2-[7-[(1-methylindazol-5-yl)amino]-1-oxo-isoindolin-2-yl]acetamide] |
| A (pIC50>8) | 10 to 100 | – | – | Cc1n[nH]c2cc(Nc3cccc4c3C(=O)N(CC(=O)N3CCO[C@@H](C(F)(F)F)C3)C4)ccc12 [Example 47, 7-[(3-methyl-1H-indazol-6-yl)amino]-2-[2-oxo-2-[(2R)-(trifluoromethyl)morpholin-4-yl]ethyl]isoindolin-1-one] |
| – | 100 to 1000 | – | 100 to 1000 | Cn1ncc2cc(Nc3cccc4c3C(=O)N(CC(=O)N3CC(F)(F)C3)C4)ccc21 [Example 19, 2-[2-(3,3-difluoroazetidin-1-yl)-2-oxo-ethyl]-7-[(1-methylindazol-5-yl)amino]isoindolin-1-one] |
| – | 10 to 100 | – | < 10 | C[C@H](NC(=O)CN1Cc2cccc(Nc3cnc4[nH]ncc4c3)c2C1=O)C(F)(F)F [Example 73, 2-[1-oxo-7-(1H-pyrazolo[3,4-b]pyridin-5-ylamino)isoindolin-2-yl]-N-[(1S)-2,2,2-trifluoro-1-methyl-ethyl]acetamide] |
| – | 10 to 100 | – | 10 to 100 | CN(c1cnc2[nH]ncc2c1)c1cccc2c1C(=O)N(CC(=O)N1CCC[C@H]1C(F)(F)F)C2 [Example 88, 7-[methyl(1H-pyrazolo[3,4-b]pyridin-5-yl)amino]-2-[2-oxo-2-[(2S)-(trifluoromethyl)pyrrolidin-1-yl]ethyl]isoindolin-1-one] |
| A (pIC50>8) | – | A (pIC50>8) | – | Cc1n[nH]c2cc(Nc3cccc4c3C(=O)N(CC(=O)N3CCCC(C(F)(F)F)C3)C4)ccc12 (stereo not drawn) [Example 32, 7-[(3-methyl-1H-indazol-6-yl)amino]-2-[2-oxo-2-[3-(trifluoromethyl)-1-piperidyl]ethyl]isoindolin-1-one] |
| A (pIC50>8) | 10 to 100 | – | – | Cc1n[nH]c2cc(Nc3cccc4c3C(=O)N(CC(=O)Nc3cc(CN(C)C)cc(C(F)(F)F)c3)C4)ccc12 [Example 39, N-[3-[(dimethylamino)methyl]-5-(trifluoromethyl)phenyl]-2-[7-[(3-methyl-1H-indazol-6-yl)amino]-1-oxo-isoindolin-2-yl]acetamide] |
| – | ≥ 1000 | – | 100 to 1000 | Cc1n[nH]c2cc(Nc3cccc4c3C(=O)N(CC(=O)N3CCOC[C@H]3C(F)(F)F)C4)cnc12 [Example 70, 7-[(3-methyl-1H-pyrazolo[4,3-b]pyridin-6-yl)amino]-2-[2-oxo-2-[(3S)-(trifluoromethyl)morpholin-4-yl]ethyl]isoindolin-1-one] |
| – | 100 to 1000 | – | 100 to 1000 | CC(C)c1n[nH]c2cc(Nc3cccc4c3C(=O)N(CC(=O)NCC(F)(F)F)C4)ccc12 [Example 80, 2-[7-[(3-isopropyl-1H-indazol-6-yl)amino]-1-oxo-isoindolin-2-yl]-N-(2,2,2-trifluoroethyl)acetamide] |
| – | ≥ 1000 | – | ≥ 1000 | Cn1ncc2cc(Nc3cccc4c3C(=O)N(CC(=O)N3CCOC[C@@H]3C(F)(F)F)C4)cnc21 [Example 57, 7-[(1-methylpyrazolo[3,4-b]pyridin-5-yl)amino]-2-[2-oxo-2-[(3R)-(trifluoromethyl)morpholin-4-yl]ethyl]isoindolin-1-one] |
| – | 10 to 100 | – | 10 to 100 | CC1c2cccc(Nc3ccc4c(cnn4C)c3)c2C(=O)N1CC(=O)NCC(F)(F)F (stereo not drawn) [Example 15, 2-[1-methyl-4-[(1-methylindazol-5-yl)amino]-3-oxo-isoindolin-2-yl]-N-(2,2,2-trifluoroethyl)acetamide] |
